Assay results: US6013626A (priority 1995, dated 2000)
Values joined by “and” are separate entries in the source; they are usually repeats but may differ in a detail not shown here. Identical values can stand only once. “Also recorded” adds a separate entry of the source. Like-named read-outs stand apart in the source and are kept apart here.

Assays:
[1] = tested on: human tumor cell lines such as KB and LoVo; experiment: Cytotoxicity against human tumor cell lines such as KB and LoVo; type: cell-based
[2] = Toxicity in mice; type: in vivo; conditions: for cause of lethal toxicity observed during testing: in vivo testing
[3] = tested on: Panc 03 (pancreatic ductal adenocarcinoma #03); conditions: for Log Kill: 9 inj. IV
Procedure: (§1) Gross log kill is defined as T-C/3.2 Td where T is the median time in days for the tumors of the treated group to reach 750 mg, C is the median time in days for the tumors of the control group to reach 750 mg, and Td is the tumor volume doubling time.

[4] = tested on: colon adenocarcinoma #33; experiment: In vivo activity, early stage colon adenocarcinoma #33; parameters: species or system mice; conditions: 8.1 mg/kg
Procedure: Gross log kill is defined as T-C/3.2 Td where T is the median time in days for the tumors of the treated group to reach 750 mg, C is the median time in days for the tumors of the control group to reach 750 mg, and Td is the tumor volume doubling time (T. H. Corbett et al., Cytotoxic Anticancer Drugs: Models and Concepts for Drug Discovery and Development, pp 35-87; Kluwer: Norwell, 1992).

[5] = tested on: murine and human tumors implanted in mice; type: in vivo; conditions: for in vivo antitumor activity: tumors implanted in mice; for tumor burden T/C values: summary: Cryptophycin 1 in five early stage murine and two early stage human tumors, Cryptophycin 8 in all tumors tested to date
Procedure: as §1

[6] = tested on: murine leukemia (L1210 or P388), murine solid tumor, human solid tumor and low malignancy fibroblast (LML)
[7] = tested on: tumor (leukemia) and normal cell (CFUGM) lines; type: cell-based; conditions: μg/disk per compound where printed
[8] = Solvolysis (methanolysis) of the C-D ester bond; type: physicochemical; conditions: methanol used in isolation scheme
[9] = tested on: SKOV3 cells; experiment: Reversibility of inhibition of SKOV3 cell proliferation; type: cell-based, human; conditions: SKOV3 cells treated 24 hours with IC50 dose, then drug-free medium
Procedure: After 24 hours the cells were washed and incubated in drug-free medium for the time indicated. The cell density was determined by sulforhodamine B (SRB) staining as described in the Experimental Section, and is expressed as the mean ± sd adsorbance at 560 nm for triplicate samples in one of three experiments.

[10] = tested on: A-10 rat aortic smooth muscle cells; type: cell-based
Procedure: A-10 cells were grown to near-confluency on glass coverslips in BME/10% FBS. Compounds in PBS were added to the indicated final concentrations and cells were incubated for an additional 24 hours. For the staining of microtubules and intermediate filaments, the cells were fixed with cold methanol and incubated with PBS containing 10% calf serum to block nonspecific binding sites. Cells were then incubated at 37° C. for 60 min with either monoclonal anti-β-tubulin or with monoclonal anti-vimentin at dilutions recommended by the manufacturer. Bound primary antibodies were subsequently visualized by a 45-minute incubation with fluorescein-conjugated rabbit antimouse IgG. The coverslips were mounted on microscope slides and the fluorescence patterns were examined and photographed using a Zeiss Photomicroscope I11 equipped with epifluoroescence optics for fluorescein. […] PBS containing 100 nM TRITC-phalloidin was then added and the mixture was allowed to incubate for 45 min at 37° C. The cells were washed rapidly three times with PBS before the coverslips were mounted and immediately photographed as described above.
After 24 hours, microtubules and vimentin intermediate filaments were visualized by indirect immunofluorescence and microfilaments were stained using TRITC-phalloidin. The morphological effects of each drug were examined.
After 24 hours, microtubule organization was examined by immunofluorescence as described above.
The cells were then washed and incubated in drug-free medium for periods of 1 hour or 24 hours.

[11] = tested on: Colon 51 (colon adenocarcinoma #51); experiment: In vivo activity, SC Colon 51 tumor; parameters: species or system mice
Procedure: as §1

[12] = tested on: Mam 16/C; experiment: In vivo activity, SC Mam 16/C tumor; parameters: species or system mice
Procedure: as §1

[13] = tested on: Colon 38 (colon adenocarcinoma #38)
Procedure: as §1

[14] = tested on: MX-1 Human Breast; experiment: In vivo activity, SC MX-1 tumor; parameters: species or system SCID mice; conditions: Exp 1806; SC MX-1 Human Breast; 8 inj. IV; total dose 12 mg/kg
Procedure: as §1

[15] = tested on: H125 Human Adenosq-lung; type: in vivo, SCID mice; conditions: Exp 1823; SC H125 Human Adenosq-lung; 8 inj. IV; total dose 14.4 mg/kg
Procedure: as §1

[16] = tested on: fungi, especially strains of Cryptococcus; conditions: R. E. Schwartz et al. 1990; cited from earlier work
[17] = tested on: murine and human tumors implanted in mice; conditions: G. Trimurtulu et al. 1994; R. Barrow et al. 1995; cited from earlier work
[18] = tested on: microtubule assembly; conditions: C. D. Smith et al. 1994; compared with vinblastine; cited from earlier work
[19] = tested on: Human Sm Cell L. DMS273; experiment: In vivo activity, SC DMS273 tumor; conditions: Exp 1596; SC Human Sm Cell L. DMS273 SCID; 6 inj. IV; total dose 7.3 mg/kg
Procedure: as §1

[20] = tested on: M17/0 (Adr. Sens.); experiment: In vivo activity, SC M17/0 tumor; parameters: species or system mice; conditions: Exp 1833; SC M17/0 (Adr. Sens.); 5 inj. IV; total dose 5.4 mg/kg
Procedure: as §1

[21] = tested on: LNCaP Human Prostate; experiment: In vivo activity, SC LNCaP tumor; parameters: species or system mice; conditions: Exp 1841, 6 inj. IV, total dose 6.5 mg/kg
Procedure: as §1

[22] = tested on: Mam 16/Taxol (taxol-resistant mammary #16/C/RP); experiment: In vivo activity, SC Mam 16/Taxol tumor; parameters: species or system mice; conditions: Exp 1733, 5 inj. IV, total dose 16.5 mg/kg
Procedure: as §1

[23] = pancreatic ductal adenocarcinoma #03, 8.1 mg/kg
[24] = μg/disk differs per compound (0.2-250 μg/disk)
[25] = Exp 1769, SC C38, 15 inj. IV, 45 mg/kg TD

COc1ccc(C[C@H]2NC(=O)/C=C/C[C@@H]([C@H](C)[C@H]3O[C@@H]3c3ccccc3)OC(=O)[C@H](CC(C)C)OC(=O)C(C)(C)CNC2=O)cc1Cl [Cryptophycin 52]
IC50's [1]: 0.025 to 0.05 ng/mL | acute and chronic toxicities ([2]; in mice): greater than Cryptophycin 1 | gross (tumor cell) log kill [3, 23]: < 2 | tumor burden T/C [3, 23]: 16% | gross (tumor cell) log kill [4]: < 2 | tumor burden T/C [4]: 4% | in vivo antitumor activity [5]: antitumor activity is seen at sublethal levels; also recorded: comparable in vivo activity to Cryptophycin 1

COc1ccc(C[C@H]2NC(=O)/C=C/C[C@@H]([C@H](C)[C@H]3O[C@@H]3c3ccccc3)OC(=O)[C@H](CC(C)C)OC(=O)[C@H](C)CNC2=O)cc1 [Cryptophycin 2]
Corbett Assay, Differential in Zone Units [6, 24]: > 400 zone units | Corbett Assay, Type of Cytotoxicity [6, 24]: E/T

COc1ccc(C[C@H]2NC(=O)/C=C/C[C@@H]([C@H](C)/C=C/c3ccccc3)OC(=O)[C@H](CC(C)C)OC(=O)[C@H](C)CNC2=O)cc1 [Cryptophycin 4]
Corbett Assay, Differential in Zone Units [6, 24]: > 400 zone units | Corbett Assay, Type of Cytotoxicity [6, 24]: E/T

CC(C)C[C@@H]1OC(=O)[C@H](C)CNC(=O)[C@@H](Cc2ccc(O)c(Cl)c2)NC(=O)/C=C/C[C@@H]([C@H](C)[C@H]2O[C@@H]2c2ccccc2)OC1=O [Cryptophycin 16]
Log Kill ([3]; Exp 1878, SC P03, 82 mg/kg TD): None

CC(=O)O[C@H]1C(=O)[C@@]2(C)[C@H]([C@H](OC(=O)c3ccccc3)[C@]3(O)C[C@H](OC(=O)[C@H](O)[C@@H](NC(=O)c4ccccc4)c4ccccc4)C(C)=C1C3(C)C)[C@]1(OC(C)=O)CO[C@@H]1C[C@@H]2O [Taxol, taxol, reference compound]
Corbett Assay, Differential in Zone Units [6, 24]: ≥ 400 zone units | Corbett Assay, Type of Cytotoxicity [6, 24]: M/H/T

COc1cc([C@@H]2c3cc4c(cc3[C@@H](O[C@@H]3O[C@@H]5CO[C@@H](C)O[C@H]5[C@H](O)[C@H]3O)[C@H]3COC(=O)[C@H]23)OCO4)cc(OC)c1O [VP-16, etoposide, reference compound]
Valeriote Assay, Differential in Zone Units [7]: 260 zone units | Corbett Assay, Differential in Zone Units [6, 24]: 350 zone units and 530 zone units

COc1ccc(CC2NC(=O)CCCC(C(C)C3OC3c3ccccc3)OC(=O)C(CC(C)C)OC(=O)C(C)CNC2=O)cc1Cl (stereo not shown) [Cryptophycin 35]
in vivo antitumor activity [5]: Good in vivo activity

COc1ccc(C[C@H]2NC(=O)/C=C/C[C@@H]([C@H](C)[C@H]3O[C@@H]3c3ccccc3)OC(=O)[C@H](CC(C)C)OC(=O)CCNC2=O)cc1Cl [Cryptophycin 21]
Log Kill ([3]; Exp 1813, SC P03, 27 mg/kg TD): None | in vivo antitumor activity [5]: inactive | susceptibility to methanolysis [8]: much more susceptible to methanolysis than Cryptophycin 1

CC[C@]1(O)C[C@@H]2CN(CCc3c([nH]c4ccccc34)[C@@](C(=O)OC)(c3cc4c(cc3OC)N(C)[C@H]3[C@@](O)(C(=O)OC)[C@H](OC(C)=O)[C@]5(CC)C=CCN6CC[C@]43[C@@H]65)C2)C1 [Vinblastine]
increase in cell number in the 24 hours following removal of the drug [9]: approximately 3 fold | effect on taxol-stabilized microtubules ([10]; A-10 cells pretreated 3 hours with 10 μM taxol, then 100 nM vinblastine or 10 nM cryptophycin compound, 24 hours): pretreatment with taxol prevented microtubule depolymerization | effect on vimentin intermediate filaments ([10]; A-10 cells, 24 hours, 100 nM vinblastine or 10 nM cryptophycin compounds): vimentin intermediate filaments collapsed | effect on microtubules ([10]; A-10 cells, 24 hours, 2 μM cytochalasin B, 100 nM vinblastine or 10 nM cryptophycin compounds): marked depletion of microtubles | reversibility of microtubule depolymerization after removal of compound ([10]; A-10 cells, 24 hr with 100 nM vinblastine or 10 nM cryptophycins, then drug-free medium 1 hour or 24 hours): complete morphological recovery by 24 hour

COc1ccc(C[C@H]2NC(=O)/C=C/C[C@@H]([C@H](C)/C=C/c3ccccc3)OC(=O)[C@H](CC(C)C)OC(=O)C(C)(C)CNC2=O)cc1Cl [Cryptophycin 51]
IC50's [1]: 2 to 4 ng/mL

COc1ccc(C[C@H]2NC(=O)/C=C/C[C@@H]([C@H](C)[C@@H](O)[C@@H](Cl)c3ccccc3)OC(=O)[C@H](CC(C)C)OC(=O)[C@H](C)CNC2=O)cc1Cl [Cryptophycin 8]
cause of lethal toxicity observed during testing [2]: attributed to leucopenia | Cures ([3]; Exp 1825, SC P03, 11 inj. IV, 106 mg/kg TD): 0/5 | Cures ([11]; Exp 1900, 9 inj. IV, 67.5 mg/kg TD): 0/5 | Cures ([5]; summary b279): some cures | gross log kill activity ratings ([5]; summary b279): +++ to ++++ | tumor burden T/C values [5]: < 10% | Cures ([12]; Exp 1885, 7 inj. IV, 21.3 mg/kg TD): 0/5 | Log Kill [13, 25]: None | T/C [13, 25]: > 100% | % Body Wt. Loss at Nadir ([13]; Exp 1887B, SC C38, 6 inj. IV, 30 mg/kg TD): -2% | Corbett Assay, Differential in Zone Units [6]: > 500 | Corbett Assay, Type of Cytotoxicity [6, 24]: E/T

COc1ccc(C[C@H]2NC(=O)/C=C/C[C@@H]([C@H](C)[C@H]3O[C@@H]3c3ccccc3)OC(=O)[C@H](CC(C)C)OC(=O)[C@H](C)CNC2=O)cc1Cl [Cryptophycin 1]
Cures [14]: 0/5 | Log Kill [14]: 2.0 | Cures [15]: 0/5 | Log Kill [15]: 1.1 | antifungal activity [16]: very active against fungi, especially strains of Cryptococcus | activity against subcutaneously transplanted solid tumors in mice [17]: very active against subcutaneously transplanted solid tumors in mice | inhibition of microtubule assembly [18]: irreversibly inhibiting mircotubule assembly | % Body Wt. Loss at Nadir [19]: 0% | Cures [19]: 0/5 | Log Kill [19]: < 1 | cause of lethal toxicity observed during testing [2]: attributed to leucopenia | Cures ([11]; Exp 1636, 7 inj. IV, total dose 28.1 mg/kg): 0/5 | Cures [20]: 0/5 | log kill values, range over trials ([5]; summary b714): <1 to 2 | tumor burden T/C values [5]: less than 10% | in vivo antitumor activity [5]: shows antitumor activity; also recorded: very promising activity | Cures ([12]; Exp 1720, 5 inj. IV, total dose 13.2 mg/kg): 0/5 | % Body Wt. Loss at Nadir ([13]; Exp 1560, SC Colon 38, 8 inj. IV, total dose 10.3 mg/kg): Gain | Cures [21]: 0/5 | Log Kill [21]: < 1 | Cures [22]: 0/4 | Corbett Assay, Differential in Zone Units [6]: > 400 | Corbett Assay, Type of Cytotoxicity [6, 24]: E/T

COc1ccc(C[C@H]2NC(=O)/C=C/C[C@@H]([C@H](C)/C=C/c3ccccc3)OC(=O)[C@H](CC(C)C)OC(=O)[C@H](C)CNC2=O)cc1Cl [Cryptophycin 3]
IC50's [1]: 2 to 4 ng/mL | Corbett Assay, Differential in Zone Units [6]: > 400 | Corbett Assay, Type of Cytotoxicity [6, 24]: E/T
